Results: patent publication US20040142978A1, “Aminocyanopyridine inhibitors of mitogen activated protein kinase-activated protein kinase-2” (Pharmacia Corporation, priority 2002, published 2004)
Counter-ions that a name gives are not always drawn. Like-named read-outs stand apart in the source and are kept apart here.

Assays:
[1] = test system: TNFα release from U937 cells; experiment: U937 Cell TNFα Release Assay (LPS-stimulated, TNFα ELISA); format: cell-based; settings: Homo sapiens, read-out: TNFα release assay IC50
Procedure: The human monocyte-like cell line, U937 (ATCC #CRL-1593.2), is cultured in RPMI1640 media with 10% heat-inactivated fetal calf serum (GIBCO), glutamine and pen/strep at 37° C. and 5% CO2. Differentiation of U937 to monocytic/macrophage-like cells is induced by the addition of phorbol12-myristate 13-acetate (Sigma) at final concentration of 20 ng/ml to a culture of U937 cells at ˜0.5 million cells/ml and incubated for 24 hrs. The cells are centrifuged, washed with PBS and resuspended in fresh media without PMA and incubated for 24 hrs. Cells adherent to the culture flask are harvested by scraping, centrifugation, and resuspended in fresh media to 2 million cells/ml, and 0.2 ml is aliquoted to each of 96 wells in flat-bottom plate. Cells are then incubated for an additional 24 hrs to allow for recovery. The media is removed from the cells, and 0.1 ml of fresh media is added per well. 0.05 ml of serially diluted compound or control vehicle (Media with DMSO) is added to the cells. […] After 1 hr incubation, 0.05 ml of 400 ng/ml LPS (E Coli serotype 0111:B4, Sigma) in media is added for final concentration of 100 ng/ml. Cells are incubated at 37° C. for 4 hrs. After 4 hrs incubation, supernatants are harvest and assayed by ELISA for the presence of TNFα.
ELISA plates (NUNC-Immuno™ Plate Maxisorb™ Surface) were coated with purified mouse monoclonal IgG1 anti-human TNFα antibody (R&D Systems #MAB610; 1.25 ug/ml in sodium bicarbonate pH 8.0, 0.1 ml/well) and incubated at 4° C. Coating solution was aspirated the following day and wells were blocked with 1 mg/ml gelatin in PBS (plus 1× thimerasol) for 2 days at 4° C. Prior to using, wells were washed 3× with wash buffer (PBS with 0.05% Tween). Cultured media samples were diluted in EIA buffer (5 mg/ml bovine γ-globulin, 1 mg/ml gelatin, 1 ml/l Tween-20, 1 mg/ml thimerasol in PBS), added to wells (0.1 ml/well) in triplicate and allowed to incubate for 1.5 hr at 37° C. in a humidified chamber. Plates were again washed and 0.1 ml/well of a mixture of rabbit anti-human TNFα polyclonal antibodies in EIA buffer (1:400 dilution of Sigma #T8300, and 1:400 dilution of Calbiochem #654250) was added for 1 hr at 37° C. Plates were washed as before and peroxidase-conjugated goat anti-rabbit IgG (H+L) antibody (Jackson lmmunoResearch #111-035-144, 1 ug/ml in EIA buffer, 0.1 ml/well) was added for 45 min. After final washing, plates were developed with peroxidase-ABTS solution (Kirkegaard/Perry #50-66-01, 0.1 ml/well). Enzymatic conversion of ABTS to colored product was measured after 5-30 minutes using a SpectroMax 340 spectrophotometer (Molecular Devices) at 405 nm. TNF levels were quantitated from a recombinant human TNFα (R&D Systems #210-TA-010) standard curve using a quadratic parameter fit generated by SoftMaxPRO software. ELISA sensitivity was approximately 30 pg TNF/ml. IC50 values for compounds were generated using BioAssay Solver.

TNFα production = experiment: Lipopolysaccharide (LPS)-Induced TNFα Production (Rat LPS assay, serum TNFα ELISA); format: in vivo, Lewis rats; settings: 20 mpk (IG)
Procedure: Adult male 225-250 gram Lewis rats (Harlan Sprague-Dawley) were used. Rats were fasted 18 hr prior to oral dosing, and allowed free access to water throughout the experiment. Each treatment group consisted of 5 animals.
Compounds were prepared as a suspension in a vehicle consisting of 0.5% methylcellulose, 0.025% Tween-20 in PBS. Compounds or vehicle were orally administered in a volume of 1 ml using an 18 gauge gavage needle. LPS (E. coli serotype 0111:B4, Lot #39H4103, Cat. # L-2630, Sigma) was administered 1-4 hr later by injection into the penile vein at a dose of 1 mg/kg in 0.5 ml sterile saline. Blood was collected in serum separator tubes via cardiac puncture 1.5 hr after LPS injection, a time point corresponding to maximal TNFα production. […]
ELISA plates (NUNC-Immuno™ Plate Maxisorb™ Surface) were coated with 0.1 ml per well of an Protein G purified fraction of a 2.5 ug/ml of hamster anti-mouse/rat TNFα monoclonal antibody TN19.12 (2.5 ug/ml in PBS, 0.1 ml/well). […] Enzymatic conversion of ABTS to colored product was measured after ˜30 minutes using a SpectroMax 340 spectrophotometer (Molecular Devices Corp.) at 405 nm. TNF levels in serum were quantitated from a recombinant rat TNFα (BioSource International, Cat. #PRC3014.) standard curve using a quadratic parameter fit generated by SoftMaxPRO software. […]

[2] = biological target: Recombinant MAPKAPK2 (MK-2) (Homo sapiens, UniProt P49137); experiment: Determination of MK-2 IC50 (anion exchange resin capture assay, phosphorylation of HSP-peptide); format: biochemical
Procedure: The phosphorylation of HSP-peptide ([…]) by MAPKAPK2 was measured using an anion exchange resin capture assay method. […] The reaction was terminated and [γ^33P]ATP was removed from solution by the addition of 150 μl of AG 1×8 ion exchange resin in 900 mM sodium formate pH 3.0. A 50 μl aliquot of head volume was removed from the quenched reaction mixture and added to a 96-well plate, 150 μl of Microscint-40 (Packard) was added and the amount of phosphorylated-peptide was determined. Allow the Microscint to sit in the plates for 60 minutes prior to counting.
Compounds are evaluated as potential inhibitors of the MK2 kinase by measuring their effects on MK2 phosphorylation of the peptide substrate. Compounds may be screened initially at two concentrations prior to determination of IC50 values. Screening results are expressed as percent inhibition at the concentrations of compound tested. For IC50 value determinations, compounds are tested at six concentrations in ten-fold serial dilutions with each concentration tested in triplicate. Results are expressed as IC50 values in micromolar. The assay is performed at a final concentration of 2% DMSO.

[3] = U-937, U937 cells, LPS 100 ng/ml, 4 hrs

Chain of Recombinant MAPKAPK2 (MK-2) (P49137 whole entry, species assumed): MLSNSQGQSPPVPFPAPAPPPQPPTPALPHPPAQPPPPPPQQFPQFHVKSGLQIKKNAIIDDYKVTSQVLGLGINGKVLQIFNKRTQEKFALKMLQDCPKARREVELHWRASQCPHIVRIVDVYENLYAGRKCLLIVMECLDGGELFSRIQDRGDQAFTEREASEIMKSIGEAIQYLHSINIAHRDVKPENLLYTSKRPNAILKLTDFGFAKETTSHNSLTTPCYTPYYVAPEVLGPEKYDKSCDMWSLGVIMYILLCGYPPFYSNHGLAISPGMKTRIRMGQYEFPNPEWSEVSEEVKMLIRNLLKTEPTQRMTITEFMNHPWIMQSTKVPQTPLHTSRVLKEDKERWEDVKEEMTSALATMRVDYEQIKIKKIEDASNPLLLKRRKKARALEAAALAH

What does the source list for `N#Cc1c(-c2cnc[nH]2)cc(-c2cccc(O)c2)nc1N` [Example 4, 2-amino-6-(3-hydroxyphenyl)-4-(1H-imidazol-5-yl)nicotinonitrile trifluoroacetate]?
IC50 ([1]; U-937, 4 h): 7 µM; Rat LPS assay: inhibition of TNFα production (TNFα production): 41%

With `N#Cc1c(-c2ccc(B(O)O)cc2)cc(-c2ccco2)nc1N` [Example 88, bis(trifluoroacetate)] as the compound, how does the IC50 [2] read?
Its IC50 is 64.6 µM.

With `N#Cc1c(N)nc2c(c1-c1ccccc1)CCc1n[nH]cc1-2` [Example 100, 2-amino-4-phenyl-6,8-dihydro-5H-pyrazolo[3,4-h]quinoline-3-carbonitrile bis(trifluoroacetate)] as the compound, how does the IC50 [1, 3] read?
The IC50 was 17.7 µM.

`N#Cc1c(N)nc2c(c1-c1cccc(F)c1F)CCc1[nH]ncc1-2.O=C(O)C(F)(F)F.O=C(O)C(F)(F)F` [Example 102, 2-amino-4-(2,3-difluorophenyl)-6,7-dihydro-5H-pyrazolo[3,4-h]quinoline-3-carbonitrile bis(trifluoroacetate)] was tested. Which IC50 ([1]; U-937, 4 h) did it give?
Its IC50 is 4 µM.

What about the “Rat LPS assay: inhibition of TNFα production” value (TNFα production) of the same compound?
Its value is 83%.

Which IC50 [1, 3] does the source give for `N#Cc1c(N)nc2c(c1-c1ccco1)CCc1cn[nH]c1-2` [Example 105, 8-amino-6-(2-furyl)-4,5-dihydro-1H-pyrazolo[4,3-h]quinoline-7-carbonitrile] here?
The IC50 was 0.9 µM.

For `N#Cc1c(-c2ccco2)cc(-c2cc[nH]n2)nc1N` [Example 106, 2-amino-4-(2-furyl)-6-(1H-pyrazol-3-yl)nicotinonitrile trifluoroacetate], which IC50 [1, 3] is on record?
The IC50 was 4 µM.

How did the IC50 [2] turn out when `CCOCC1Cc2c(nc(N)c(C#N)c2N)O1` (stereo not drawn) [Example 125, trifluoroacetate] was run?
Its IC50 is 127 µM.
